The term MIC denotes the lowest concentration that inhibits growth of the organism. A low value points to inhibition by little substance.

≈ marks a conversion by molar mass, not a printed value.

MIC data for 1 compound are collected here from ChEMBL document CHEMBL2086231, “Novel pleuromutilin derivatives as antibacterial agents: synthesis, biological evaluation and molecular docking studies” (2012).

What all share (assay type): functional
Experiment [1] deals with Staphylococcus aureus. Kind of experiment: Antibacterial activity against methicillin-resistant Staphylococcus aureus isolate cpu1098 after 18 to 20 hrs by agar dilution method.
The subject of experiment [2] is Staphylococcus epidermidis. As to the kind of experiment: Antibacterial activity against methicillin-sensitive Staphylococcus epidermidis isolate cpu0347 after 18 to 20 hrs by agar dilution method. On the technique in general: In agar dilution the substance is mixed into plates at graded concentrations.
In experiment [3] the test system is Staphylococcus aureus. Kind of experiment: Antibacterial activity against methicillin-sensitive Staphylococcus aureus isolate cpu1344 after 18 to 20 hrs by agar dilution method.
For experiment [4], the system named is Staphylococcus aureus. As to the kind of experiment: Antibacterial activity against methicillin-sensitive Staphylococcus aureus isolate cpu0211 after 18 to 20 hrs by agar dilution method.
Experiment [5] concerns Staphylococcus epidermidis. Kind of experiment: Antibacterial activity against methicillin-resistant Staphylococcus epidermidis isolate cpu3889 after 18 to 20 hrs by agar dilution method.
In experiment [6] the test system is Staphylococcus epidermidis. Kind of experiment: Antibacterial activity against methicillin-sensitive Staphylococcus epidermidis isolate cpu1561 after 18 to 20 hrs by agar dilution method.
Experiment [7] concerns Staphylococcus epidermidis. As to the kind of experiment: Antibacterial activity against methicillin-resistant Staphylococcus epidermidis isolate cpu2736 after 18 to 20 hrs by agar dilution method.
For experiment [8], the system named is Staphylococcus aureus. Kind of experiment: Antibacterial activity against methicillin-sensitive Staphylococcus aureus isolate cpu0587 after 18 to 20 hrs by agar dilution method.
For experiment [9], the system named is Staphylococcus epidermidis. Kind of experiment: Antibacterial activity against methicillin-resistant Staphylococcus epidermidis isolate cpu3569 after 18 to 20 hrs by agar dilution method.
Experiment [10] deals with Staphylococcus aureus. Kind of experiment: Antibacterial activity against methicillin-sensitive Staphylococcus aureus isolate cpu1044 after 18 to 20 hrs by agar dilution method.
Experiment [11] relates to Staphylococcus epidermidis. Kind of experiment: Antibacterial activity against methicillin-sensitive Staphylococcus epidermidis isolate cpu0315 after 18 to 20 hrs by agar dilution method.
The test system of experiment [12] is Mycoplasma. As to the kind of experiment: Antimicrobial activity against Mycoplasma by serial two fold dilution assay.
Experiment [13] deals with Staphylococcus epidermidis. Kind of experiment: Antibacterial activity against methicillin-sensitive Staphylococcus epidermidis isolate cpu2089 after 18 to 20 hrs by agar dilution method.
The test system of experiment [14] is Staphylococcus epidermidis. Kind of experiment: Antibacterial activity against methicillin-resistant Staphylococcus epidermidis isolate cpu2623 after 18 to 20 hrs by agar dilution method.
Experiment [15] deals with Staphylococcus aureus. As to the kind of experiment: Antibacterial activity against methicillin-resistant Staphylococcus aureus isolate cpu3256 after 18 to 20 hrs by agar dilution method.
Experiment [16] relates to Staphylococcus aureus. As to the kind of experiment: Antibacterial activity against methicillin-resistant Staphylococcus aureus isolate cpu0446 after 18 to 20 hrs by agar dilution method.
In experiment [17] the test system is Staphylococcus aureus. As to the kind of experiment: Antibacterial activity against methicillin-resistant Staphylococcus aureus isolate cpu0887 after 18 to 20 hrs by agar dilution method.

Consider `C=C[C@]1(C)C[C@@H](OC(=O)CSCCN(CC)CC)[C@]2(C)[C@H](C)CC[C@]3(CCC(=O)[C@H]32)[C@@H](C)[C@@H]1O` [TIAMULIN], for which the MIC stood at 2 µg/mL (≈ 4.05 µM) in experiment [1]; 0.5 µg/mL (≈ 1.01 µM) in [2]; 2 µg/mL (≈ 4.05 µM) in [3]; 2 µg/mL (≈ 4.05 µM) in experiment [4]; 1 µg/mL (≈ 2.03 µM) in experiment [5]; 0.0625 µg/mL (≈ 0.127 µM) in experiment [6]. In addition, the MIC is 0.0625 µg/mL (≈ 0.127 µM) in experiment [7]; 8 µg/mL (≈ 16.2 µM) in [8]; 0.25 µg/mL (≈ 0.506 µM) in experiment [9]; 8 µg/mL (≈ 16.2 µM) in experiment [10]; 0.0625 µg/mL (≈ 0.127 µM) in [11]; under 1 µg/mL in experiment [12]. Further, the MIC in [13] is 0.5 µg/mL (≈ 1.01 µM); in [14] it was 1 µg/mL (≈ 2.03 µM); in [15], 2 µg/mL (≈ 4.05 µM); in [16], 2 µg/mL (≈ 4.05 µM); in [17] it was 0.5 µg/mL (≈ 1.01 µM).
